The record followed here is patent US9242988B2, “2′-cyano substituted nucleoside derivatives and methods of use thereof for the treatment of viral diseases” (Merck Sharp & Dohme Corp., priority 2012, dated 2016).

This test concerns HCV replicon cells (1b). Description: Cell-Based HCV Replicon Assay. Here is the method:
To measure cell-based anti-HCV activity of selected compounds of the present invention, replicon cells were seeded at 5000 cells/well in 96-well collagen I-coated Nunc plates in the presence of the test compound. Various concentrations of test compound, typically in 10 serial 2-fold dilutions, were added to the assay mixture, with the starting concentration ranging from 250 μM to 1 μM. The final concentration of dimethylsulfoxide was 0.5%, fetal bovine serum was 5%, in the assay media. Cells were harvested on day 3 by the addition of 1× cell lysis buffer (Ambion cat #8721). The replicon RNA level was measured using real time PCR (Taqman assay). The amplicon was located in 5B. The PCR primers were: 5B.2F, […] (SEQ ID. NO. 1); 5B.2R, […] (SEQ ID. NO. 2); the probe sequence was FAM-labeled […] (SEQ ID. NO. 3). GAPDH RNA was used as endogenous control and was amplified in the same reaction as NS5B (multiplex PCR) using primers and VIC-labeled probe recommended by the manufacturer (PE Applied Biosystem). The real-time RT-PCR reactions were run on ABI PRISM 7900HT Sequence Detection System using the following program: 48° C. for 30 minutes, 95° C. for 10 minutes, 40 cycles of 95° C. for 15 sec, 60° C. for 1 minute. The ΔCT values (CT5B-CTGAPDH) were plotted against the concentration of test compound and fitted to the sigmoid dose-response model using XLfit4 (MDL). […] Alternatively, to quantitate the absolute amount of replicon RNA, a standard curve was established by including serially diluted T7 transcripts of replicon RNA in the Taqman assay. All Taqman reagents were from PE Applied Biosystems. Such an assay procedure was described in detail in e.g. Malcolm et al., Antimicrobial Agents and Chemotherapy 50: 1013-1020 (2006).
(In antiviral work, replicon cells carry a viral genome segment that copies itself.)

[1] abbreviates: Hepatitis C virus, 72 h, read-out: 1b EC50.
[2] abbreviates: Hepatitis C virus, 72 h, replicon RNA level by real time PCR (Taqman), cells harvested on day 3; read-out: 1b EC50.
The mark [3] stands for this setting: replicon RNA level by real time PCR (Taqman), cells harvested on day 3; read-out: 1b EC50.

Structures are written as SMILES. Where two headings read alike, the source gives them in different places.

Take `CC(C)OC(=O)[C@H](C)NP(=O)(OC[C@H]1O[C@@H](c2ccc3c(N)ncnn23)[C@](C)(C#N)[C@@H]1O)Oc1ccccc1` (single isomer, unassigned) [Compound 11]: the EC50 (in general, the concentration needed to bring the measured effect to its halfway point) under setting [1] stood at 35 µM.

With `CC(C)OP1(=O)OC[C@H]2O[C@@H](c3cnc4c(N)ncnn34)[C@](C)(C#N)[C@@H]2O1` (single isomer, unassigned) [Compound 20], the EC50 under setting [2] turned out to be 77 µM.

On to `CC(C)(C)COP1(=O)OC[C@H]2O[C@@H](c3ccc4c(N)ncnn34)[C@](C)(C#N)[C@@H]2O1` (single isomer, unassigned) [Compound 18], for which the EC50 under setting [2] is 33 µM.

Turning to `CC(C)OC(=O)[C@H](C)NP(=O)(OC[C@H]1O[C@@H](c2cnc3c(N)ncnn23)[C@](C)(C#N)[C@@H]1O)Oc1ccccc1` (single isomer, unassigned) [Compound 14], the half-maximal effective concentration (EC50) under setting [1] is more than 100 µM.

Regarding `CC(C)OC(=O)COP(=O)(N[C@@H](C)C(=O)OC(C)C)OC[C@H]1O[C@@H](c2ccc3c(N)ncnn23)[C@](C)(C#N)[C@@H]1O` (single isomer, unassigned) [Compound 12], the EC50 under setting [2] was more than 100 µM.

Take `CC(C)(C)COP1(=O)OC[C@H]2O[C@@H](c3ccc4c(N)ncnn34)[C@](C)(C#N)[C@@H]2O1` (single isomer, unassigned) [Compound 19]: under setting [3], the EC50 is 46 µM.

On to `CC(C)OC(=O)[C@H](C)NP(=O)(OC[C@H]1O[C@@H](c2cnc3c(N)ncnn23)[C@](C)(C#N)[C@@H]1O)Oc1ccccc1` (single isomer, unassigned) [Compound 15], for which, under “read-out: 1b EC50; replicon RNA level by real time PCR (Taqman), cells harvested on day 3”, the concentration for a half-maximal effect (EC50) is more than 100 µM.

In the case of `CC(C)OP1(=O)OC[C@H]2O[C@@H](c3cnc4c(N)ncnn34)[C@](C)(C#N)[C@@H]2O1` (single isomer, unassigned) [Compound 21], the EC50 under setting [3] was more than 100 µM.
